Test results taken from patent publication US20100111838A1, “BRAIN-LOCALIZING POLYPEPTIDES COMPRISING A MULTIVALENT BINDING MOIETY AND IMPROVED METABOLIC STABILITY” (Proteus Sciences Co., Ltd, priority 2007, published 2010).
Where a SMILES comes first, the peptide text is derived from it. The star is where a group is joined. 5FAM = O=C1OC2(c3ccc(O)cc3Oc3cc(O)ccc32)c2ccc(C(=O)*)cc21

Assay: In vitro metabolism test of fluorescein-labeled peptides in liver extract solution (HPLC)
Type: in vitro ADME
Details: mouse liver extract solution, 37° C.
Method: To compare the degree of improved stability observed in [C]K004K, an experiment system that uses a fluorescent pigment as a tracer instead of an isotope labeling for in vitro evaluation using a mouse liver homogenate was produced.
Add two parts of Hanks' solution to one part of mouse liver, and homogenize ↓ Centrifuge and collect supernatant ↓ Add five parts of Hanks' solution (liver extract solution) ↓ Add 5 μL of peptide to 245 μL of liver extract solution ↓
↓ Take 50 μL of sample 0, 5, 30, 60, and 120 minutes after incubation ↓ Add 200 μL, of 70% ethanol (pre-cooled at −30° C.) and then vortex ↓ Add 500 μL of chloroform (pre-cooled at −30° C.) and then vigorously vortex ↓ Centrifuge and collect supernatant ↓ Add an equivalent amount of DMF and then vortex ↓ Centrifuge and collect supernatant ↓ HPLC analysis using Co-sense
[C](Flu)-C004C: A peptide cyclized by adding C to both ends of the 004 sequence and forming a disulfide bond between them was labeled with fluorescein at its N-terminus. [C](Flu)-K004C: A peptide cyclized by adding K to the N terminus and C to the C terminus of the 004 sequence and forming a peptide bond between the N- and C-termini was labeled with fluorescein at its N terminus. [C](Flu)-K004K: A peptide cyclized by adding K to both ends of the 004 sequence and forming a peptide bond between the N- and C-termini was labeled with fluorescein at its N terminus. […]

## CC(C)C[C@@H]1NC(=O)[C@H](Cc2c[nH]cn2)NC(=O)[C@H](CCCNC(=N)N)NC(=O)[C@H](C(C)C)NC(=O)[C@H](C(C)C)NC(=O)[C@H](CCCCNC(=O)c2ccc3c(c2)C(=O)OC32c3ccc(O)cc3Oc3cc(O)ccc32)NC(=O)[C@H](CCCCN)NC(=O)[C@H](CCC(N)=O)NC(=O)[C@H](CCC(N)=O)NC1=O [[C](Flu)-K004K] (cyclo(K(5FAM)VVRHLQQK))
  resistance to degradation in liver extract solution (comparison): strongest resistance to degradation
